{
  "source": "patent US20230172923A1",
  "about": "“METHODS OF TREATING CYTOKINE-RELATED ADVERSE EVENTS” (BRISTOL-MYERS SQUIBB COMPANY, priority 2020, published 2023)",
  "format_in_all_cases": "cell-based, human",
  "key": {"IL-6": {"test_system": "IL-6", "assay": "LPS-stimulated PBMC cytokine production, multiplex cytokine analysis: IL-6", "settings": "PBMC 2×10^6 cells/ml, compound 1 hour, then 1 ng/ml LPS 18 hours", "protocol": "(§1) Peripheral blood mononuclear cells (PBMCs) were isolated from the blood of healthy human donors by Ficoll cell separation. […] Supernatant samples were subjected to multiplex cytokine analysis (Luminex IS100 instrument) to quantify secreted levels of IL-6, IL-8, IL1-beta (IL-1β), GM-CSF, MDC, MIP-1alpha (MIP-1α), MIP-1beta (MIP-1β) and TNF-alpha (TNF-α) (see e.g. FIGS. 7A-C). IC50 (half maximal inhibitory concentration) values were calculated to measure the potency of each IMiD compound in inhibiting LPS-stimulated secretion of each cytokine (see Table 25)."}, "TNF-α": {"test_system": "TNF-α", "assay": "LPS-stimulated PBMC cytokine production, multiplex cytokine analysis: TNF-α", "settings": "PBMC 2×10^6 cells/ml, compound 1 hour, then 1 ng/ml LPS 18 hours", "protocol": "(§2) Peripheral blood mononuclear cells (PBMCs) were isolated from the blood of healthy human donors by Ficoll cell separation. The PBMCs were seeded at a concentration of 2×10^6 cells/ml and treated for 1 hour at 37° C. with various concentrations of IMiD compounds or control DMSO (0.25%), before stimulation with 1 ng/ml LPS for 18 hours at 37° C.\n(§3) Supernatant samples were subjected to multiplex cytokine analysis (Luminex IS100 instrument) to quantify secreted levels of IL-6, IL-8, IL1-beta (IL-1β), GM-CSF, MDC, MIP-1alpha (MIP-1α), MIP-1beta (MIP-1β) and TNF-alpha (TNF-α) (see e.g. FIGS. 7A-C).\n(§4) IC50 (half maximal inhibitory concentration) values were calculated to measure the potency of each IMiD compound in inhibiting LPS-stimulated secretion of each cytokine (see Table 25)."}, "MIP-1β": {"test_system": "MIP-1β", "assay": "LPS-stimulated PBMC cytokine production, multiplex cytokine analysis: MIP-1β", "settings": "PBMC 2×10^6 cells/ml, compound 1 hour, then 1 ng/ml LPS 18 hours", "protocol": "as §1"}, "[1]": {"test_system": "IL-6, IL-8, IL-1β, GM-CSF, MDC, MIP-1α, MIP-1β and TNF-α", "assay": "LPS-induced secretion of proinflammatory cytokines from PBMCs (whole multiplex panel, result in words)", "settings": "pre-treatment 1 hour, 1 ng/ml LPS 18 hours", "protocol": "Peripheral blood mononuclear cells (PBMCs) from healthy volunteers were seeded at a concentration of 2×10^6 cells/ml and treated with the indicated concentrations of IMiD compounds or control DMSO (0.25%) for 1 hour, before stimulation with 1 ng/ml LPS. After 18 hours, proinflammatory cytokine levels in the supernatant were assessed by multiplex cytokine analysis.\nas §2, §3"}, "MIP-1α": {"test_system": "MIP-1α", "assay": "LPS-stimulated PBMC cytokine production, multiplex cytokine analysis: MIP-1α", "settings": "PBMC 2×10^6 cells/ml, compound 1 hour, then 1 ng/ml LPS 18 hours", "protocol": "as §2, §3, §4"}, "IL-1β": {"test_system": "IL-1β", "assay": "LPS-stimulated PBMC cytokine production, multiplex cytokine analysis: IL-1β", "settings": "PBMC 2×10^6 cells/ml, compound 1 hour, then 1 ng/ml LPS 18 hours", "protocol": "as §1"}, "IL-8": {"test_system": "IL-8", "assay": "LPS-stimulated PBMC cytokine production, multiplex cytokine analysis: IL-8", "settings": "PBMC 2×10^6 cells/ml, compound 1 hour, then 1 ng/ml LPS 18 hours", "protocol": "as §2, §3, §4"}, "GM-CSF": {"test_system": "GM-CSF", "assay": "LPS-stimulated PBMC cytokine production, multiplex cytokine analysis: GM-CSF", "settings": "PBMC 2×10^6 cells/ml, compound 1 hour, then 1 ng/ml LPS 18 hours", "protocol": "as §1"}, "MDC": {"test_system": "MDC", "assay": "LPS-stimulated PBMC cytokine production, multiplex cytokine analysis: MDC", "settings": "PBMC 2×10^6 cells/ml, compound 1 hour, then 1 ng/ml LPS 18 hours", "protocol": "as §1"}},
  "data": [
    {"smiles": "Cc1nc2cccc(N)c2c(=O)n1C1CCC(=O)NC1=O", "note": "(stereo not shown) [Avadomide, 3-(5-amino-2-methyl-4-oxo-3,4-dihydroquinazolin-3-yl)piperidine-2,6-dione]", "values": [
      {"measurement": "IC50", "setting": "IL-6; Homo sapiens", "value": 0.06, "unit": "µM"},
      {"measurement": "IC50", "setting": "TNF-α; Homo sapiens", "value": 0.034, "unit": "µM"},
      {"measurement": "IC50", "setting": "MIP-1β; Homo sapiens", "value": "> 10", "unit": "µM"},
      {"measurement": "LPS-induced secretion of proinflammatory cytokines from PBMCs (effect in words)", "setting": "[1]", "value": "inhibited"},
      {"measurement": "IC50", "setting": "MIP-1α; Homo sapiens, PBMC", "value": 0.3, "unit": "µM"},
      {"measurement": "IC50", "setting": "IL-1β; Homo sapiens", "value": 0.054, "unit": "µM"},
      {"measurement": "IC50", "setting": "IL-8; Homo sapiens", "value": "> 10", "unit": "µM"}
    ]},
    {"smiles": "O=C1CCC(N2C(=O)c3ccccc3C2=O)C(=O)N1", "note": "(stereo not shown) [Thalidomide, 2-(2,6-dioxopiperidin-3-yl)-2,3 dihydro-1H-isoindole-1,3-dione]", "values": [
      {"measurement": "IC50", "setting": "IL-6; Homo sapiens, PBMC", "value": "> 10", "unit": "µM"},
      {"measurement": "IC50", "setting": "TNF-α; Homo sapiens, PBMC", "value": "> 10", "unit": "µM"},
      {"measurement": "IC50", "setting": "MIP-1β; Homo sapiens", "value": "> 10", "unit": "µM"},
      {"measurement": "IC50", "setting": "GM-CSF; Homo sapiens, PBMC", "value": "> 10", "unit": "µM"},
      {"measurement": "LPS-induced secretion of proinflammatory cytokines from PBMCs (effect in words)", "setting": "[1]", "value": "minimal to no effect"},
      {"measurement": "IC50", "setting": "MIP-1α; Homo sapiens, PBMC", "value": "> 10", "unit": "µM"},
      {"measurement": "IC50", "setting": "MDC; Homo sapiens, PBMC", "value": "> 10", "unit": "µM"},
      {"measurement": "IC50", "setting": "IL-1β; Homo sapiens, PBMC", "value": "> 10", "unit": "µM"},
      {"measurement": "IC50", "setting": "IL-8; Homo sapiens", "value": "> 10", "unit": "µM"}
    ]},
    {"smiles": "O=C1CCC(N2Cc3c(OCc4ccc(CN5CCOCC5)cc4)cccc3C2=O)C(=O)N1", "note": "(single isomer, unassigned) [Compound A]", "values": [
      {"measurement": "IC50", "setting": "IL-6", "value": 0.01, "unit": "µM"},
      {"measurement": "IC50", "setting": "TNF-α", "value": 0.0018, "unit": "µM"},
      {"measurement": "IC50", "setting": "MIP-1β; Homo sapiens", "value": "> 10", "unit": "µM"},
      {"measurement": "IC50", "setting": "GM-CSF", "value": 0.0092, "unit": "µM"},
      {"measurement": "LPS-induced secretion of proinflammatory cytokines from PBMCs (effect in words)", "setting": "[1]", "value": "inhibited"},
      {"measurement": "IC50", "setting": "MIP-1α", "value": 0.19, "unit": "µM"},
      {"measurement": "IC50", "setting": "MDC", "value": 0.0026, "unit": "µM"},
      {"measurement": "IC50", "setting": "IL-1β", "value": 0.00085, "unit": "µM"},
      {"measurement": "IC50", "setting": "IL-8; Homo sapiens", "value": "> 10", "unit": "µM"}
    ]},
    {"smiles": "O=C1CCC(N2Cc3c(OCc4ccc(CN5CCOCC5)cc4)cccc3C2=O)C(=O)N1", "note": "(single isomer, unassigned) [Compound B]", "values": [
      {"measurement": "IC50", "setting": "IL-6", "value": 0.083, "unit": "µM"},
      {"measurement": "IC50", "setting": "TNF-α", "value": 0.0095, "unit": "µM"},
      {"measurement": "IC50", "setting": "MIP-1β", "value": "> 10", "unit": "µM"},
      {"measurement": "IC50", "setting": "GM-CSF", "value": 0.039, "unit": "µM"},
      {"measurement": "LPS-induced secretion of proinflammatory cytokines from PBMCs (effect in words)", "setting": "[1]", "value": "inhibited"},
      {"measurement": "IC50", "setting": "MIP-1α", "value": 0.45, "unit": "µM"},
      {"measurement": "IC50", "setting": "MDC", "value": 0.012, "unit": "µM"},
      {"measurement": "IC50", "setting": "IL-1β", "value": 0.0062, "unit": "µM"},
      {"measurement": "IC50", "setting": "IL-8", "value": "> 10", "unit": "µM"}
    ]}
  ]
}
